Measurements taken from US8236533B2, “Process for the production of γ-glutamylcysteine” (NewSouth Innovations PTY Limited, priority 2005, dated 2012).
In brackets after ≈: the same amount, converted by molar mass. Several values for one entry are separate records, joined by “and”; a condition that tells them apart may be missing. Identical values can stand only once. One block for each compound: values may come before it.

Tests used:
[1] = physchem
[2] = aqueous solubility
[3] = isoelectric point (pI); type: physicochemical
[4] = stability on removal of water by evaporation; type: physicochemical; conditions: temperatures above 40° C.
Experimental: Example 13 describes purification of GGC from a mixture comprising GGC and 2-mercaptoethanol, with subsequent freeze-drying. However, it is not expected that freeze drying would be an economic option at industrial scale. Removal of water by conventional evaporation at temperatures above 40° C. results in degradation of the product. However, a process of concentration by nanofiltration is expected to be most suitable at industrial scale as it is both low temperature and a cost effective method for water removal. […] After the removal of the majority of water by nanofiltration and a pH adjustment to the pH of the isoelectric point (GGC=pH 2.8) the addition of an antisolvent such as ethanol or acetone can be added to initiate spontaneous crystallization. The final product can be collected by filtration and dried under reduced pressure.

[5] = system: glutathione levels; assay: utilization of GGC in mice: glutathione levels; type: in vivo; conditions: preliminary studies
Description: The final form of GGC, whether it be in the reduced state as γ-glutamylcysteine or in the disulphide form as bis-γ-glutamylcystine, is dependent on the final application of the dipeptide. […] The oxidised form bis-γ-glutamylcystine is more likely to be suitable for application as a nutraceutical supplement as no special precautions to prevent the oxidation of the sulphydryl, would be required, whereas application in the treatment of poisoning or as an antioxidant in food or cosmetics would require the reducing power of the sulphydryl of γ-glutamylcysteine. Whatever the desired form, both are relatively easily interconverted by reduction which can be achieved either chemically (Jocelyn, P. C., Chemical reduction of disulfides. Methods in Enzymology, 1987. 143: p. 246-56), electrochemically (Genders, J. D., N. L. Weinberg, and D. J. Mazur, High yield methods for electrochemical preparation of cysteine and analogues. 1988, U.S. Pat. No. 5,106,463. The Electrosynthesis Company, Inc.) or oxidized to the disulphide form simply by exposing a solution to air (oxygen) with a trace amount of copper or iron salt added to catalyse the reaction.

[6] = physchem; conditions: pH 9.1, aqueous with cosolvent or surfactant or cyclodextrin, thermodynamic from solid

SMILES: COC(=O)[C@@H](N)CSSC[C@H](N)C(=O)OC.Cl.Cl [CDME, cystine dimethyl ester dihydrochloride]
solubility [1]: > 20000 µg/mL

SMILES: N[C@@H](CSSCCO)C(=O)O [Cys-Merc, cysteine-mercaptoethanol mixed disulphide]
aqueous solubility [2]: ~20000 µg/mL (≈ 101 mM) | isoelectric point (pI) [3]: 5.2 and 5.3

SMILES: N[C@@H](CCC(=O)N[C@@H](CS)C(=O)O)C(=O)O [GGC, γ-Glutamylcysteine]
isoelectric point (pI) [3]: 2.8 | stability on conventional evaporation of water [4]: degradation | glutathione levels after administration [5]: significantly increase glutathione levels

SMILES: N[C@@H](CCC(=O)NC(CSSCCO)C(=O)O)C(=O)O (stereo partly shown) [GGC-Merc, γ-glutamylcysteine-mercaptoethanol disulphide]
isoelectric point (pI) [3]: 3.0

SMILES: N[C@@H](CCC(=O)N[C@@H](CSSC[C@H](NC(=O)CC[C@H](N)C(=O)O)C(=O)O)C(=O)O)C(=O)O [bis-γ-glutamylcystine]
glutathione levels after administration [5]: significantly increase glutathione levels

More lines, now with the values ahead:

isoelectric point (pI) [3]: 5.8
SMILES: CCOC(=O)CC[C@H](N)C(=O)O [GEE, glutamic acid γ-ethyl ester]

solubility limit ([2]; pH 8.5 in 100 mM phosphate buffer): 8.4 mM (≈ 2240 µg/mL)
SMILES: N[C@@H](CCC(=O)Nc1ccc([N+](=O)[O-])cc1)C(=O)O [GPNA, L-γ-glutamyl-p-nitroanilide]

solubility ([2]; water): 2000 mM
SMILES: CC(=O)NCSC[C@H](N)C(=O)O [S-acetamidomethylcysteine]

solubility ([2]; aqueous solution, pH 3, aqueous buffer): 100 µg/mL | solubility ([2]; phosphate buffer, pH 8.5, aqueous buffer): 16.6 mM | solubility ([2]; water, 37 °C, pH 9.1, water): ~5000 µg/mL | solubility ([6]; 50% DMF in diethanolamine (DEA) buffer): ~30 mM | solubility ([6]; 50% DMF in water): ~9000 µg/mL
SMILES: N[C@@H](CSSC[C@H](N)C(=O)O)C(=O)O [cystine]
